Assay [1] deals with H1 ES cells. The assay is described as follows: ES cell survival in mTeSR without insulin. Type of assay: cell-based, human. The following applies: for cell survival: 30 ng/ml added at 0 hour; for cell survival, dosage response: low concentration (e.g., 3 ng/ml), 24 hours. The method, then: Pluripotent cell survival assays were carried out as described in Example 1. Media tested included mTeSR and mTeSR […]. IGF1R is known to be activated by insulin, IGF1 and IGF2 (Nguyen et al., Reproduction 134:41-49 (2007)). Accordingly, the inventors designed and carried out experiments to test how IGF1 or IGF2 could affect ES cell survival. Individualized H1 ES cells were plated in mTeSR™ with or without insulin (Sigma). IGF1 (30 ng/ml) and IGF2 (30 ng/ml) were added to media at 0 hour. […] Dosage response assays were conducted to determine useful concentrations of IGF1, IGF2, and Long-IGF-1 (Sigma) in pluripotent cell maintenance medium. Individualized H1 ES cells were plated in mTeSR without insulin, IGF1, IGF2 and Long-IGF1 were added at 0 hour, and cell survival was measured after 24 hours.

Assay [2] deals with H1 ES cells. The assay is described as follows: ES cell proliferation after insulin replacement. Type of assay: cell-based, human. The note with it: insulin replaced after 24 hours with 30 ng/ml; feeder-free culture. The method, then: To determine whether IGF1 and IGF2 are sufficient to support ES cell proliferation in the absence of insulin, individualized H1 ES cells were plated onto Matrigel plates in TeSR (with insulin) for the first 24 hours. Then insulin was either removed or replaced with IGF1 (30 ng/ml) and IGF2 (30 ng/ml). Cell numbers were measured at specific time points, and the fold change in cell numbers was normalized to the cell counts at the time when insulin was first replaced.

The next assay has as its system H1 cells. The assay is described as follows: Cloning efficiency of H1 cells. Type of assay: cell-based, human. The method, then:
FIG. 2 A-F illustrate optimization of human ES cell and iPS cell culture conditions with DF5S. […] Cell survival was examined at 24 hours and 124 hours. […] DF5S trFe indicates DF5S media to which holotransferrin was added. FIG. 2E illustrates the cloning efficiency of H1 cells cultured in various media in the presence of HA100 (10 μM, 24 hours), blebbistatin (10 μM, 4 hours), or Y27632 (10 μM, 24 hours), compared to cloning efficiency in the absence of these factors (control). Asterisks indicate p<0.05. FIG. 2F illustrates cloning efficiency of H1 cells in conditioned medium (CM), CM with ROCK inhibitor (HA100), TeSR with ROCK inhibitor, and E8 with ROCK inhibitor in normoxic (dark gray bars) or hypoxic (light gray bars) conditions. Error bars indicate the standard error of the mean; asterisks indicate p<0.05.
To determine cloning efficiency at various oxygen and CO2 concentrations, 500 cells were seeded into each well. Even at low oxygen, cloning efficiency was too low (<2%) to determine effects of various conditions on cloning. HA100, a ROCK inhibitor known to increase cloning efficiency, was used to increase cloning efficiency for testing oxygen and CO2 concentrations. Conditioned medium (CM), known to be the best medium for cloning, was used as control.
The cells maintained a normal karyotype after more than 25 passages.

The test system of the next assay is iPS cells. The assay is described as follows: Cloning efficiency of iPS cells. Type of assay: cell-based, human. The following applies: about 500 cells per well, in the presence of HA100, DF5S-based media versus TeSR or CM. The method, then:
To determine how DF5S affects cloning efficiency, two iPS cell lines were grown in DF5S and plated at cloning density (approximately 500 cells per 12-well plate well) in the presence of HA100. […] To identify such factor, individual TeSR™ components were added individually to DF5S and tested for effect on cloning efficiency.

Assay [3] relates to foreskin cells. The assay is described as follows: Reprogramming of foreskin fibroblasts to iPS cells. Type of assay: cell-based, human. The method, then: Available reprogramming protocols include incubation of the cells in FBS in the first several days after viral transduction or electroporation, prior to switching the cells to UM100 (U.S. Pat. No. 7,439,064, incorporated herein as if set forth in its entirety) or CM. The simplified media described in previous Examples were tested for their ability to support reprogramming.
To determine if DF5S-based media can be used for viral-free iPS cell derivation, foreskin cells were reprogrammed using a viral-free episomal vector, as described in Yu et al., Science 324:797 (2009), incorporated herein by reference as if set forth in its entirety, at hypoxic conditions (O5C10).
Plasmid combinations #6 and #19 were used for the reprogramming. In order to enhance the plasmid entry into the nucleus, ENBA mRNA was electroporated along with plasmid DNA. Around one million cells were transferred onto two 6-well plates in DF5SFeC for 5 days. Medium was then switched to DF5SFe for another 18-25 days. Cells of some of the wells were passaged for a second time using a 1:6 ratio at different time points.

In a further assay the test system is human fibroblasts. The assay is described as follows: Reprogramming efficiency of human fibroblasts in E8-based medium. The class given is cell-based. The following applies: E8 versus MEF feeder cells or TeSR; butyrate 100 μM with or without TGF-β.
Assay [4] relates to H1 ES cells. The assay is described as follows: Pluripotent cell survival assay (24 h survival index after dissociation). The class given is cell-based, human. The following applies: basic nutrient medium NM with or without additions, H1 ES cells on Matrigel. The method, then:
Five-hundred micro liter of various test media was loaded into each well of 12-well plates prior to the addition of cells. Adherent pluripotent cells were dissociated with TrypLE (Invitrogen) for 5 minutes or until fully detached from the culture plates. TrypLE was neutralized by adding an equal volume of media to the culture. The cells were counted, washed, and resuspended in fresh media at a concentration of 300,000 to 1,000,000 cells/ml. Approximately 100 μl of this cell solution was added into each well of the 12-well plates and the cells were incubated at 37° C. with 5% O2 and 10% CO2. Cells were again dissociated at various time points using 0.4 ml TrypLE, which was subsequently neutralized with equal volumes of 10% FBS in DMEM. The cells were counted by flow cytometry. 5000 count bright beads were added to each sample as internal control (approximately 200 beads were counted for each sample). All experiments were performed in triplicates. TeSR medium contains six growth factors, in addition to those present in the basal medium, fibroblast growth factor (FGF), transforming growth factor beta (TGF-β), γ-aminobutyric acid (GABA), pipecolic acid, lithium chloride (LiCl), and insulin (Table 1). A basic nutrient medium (NM) was created containing all TeSR™ components with the exception of these six growth factors. […] The survival index was determined after 24 h. […]

The test system of assay [5] is H1 ES cells. The assay is described as follows: Short term growth / proliferation after passaging. The class given is cell-based, human. The note with it: for cell proliferation after passaging: factor added to DMEM/F12, NaHCO3, insulin and FGF, L-ascorbic acid 64 mg/L. The method, then:
Five-hundred micro liter of various test media was loaded into each well of 12-well plates prior to the addition of cells. Adherent pluripotent cells were dissociated with TrypLE (Invitrogen) for 5 minutes or until fully detached from the culture plates. TrypLE was neutralized by adding an equal volume of media to the culture. The cells were counted, washed, and resuspended in fresh media at a concentration of 300,000 to 1,000,000 cells/ml. Approximately 100 μl of this cell solution was added into each well of the 12-well plates and the cells were incubated at 37° C. with 5% O2 and 10% CO2. Cells were again dissociated at various time points using 0.4 ml TrypLE, which was subsequently neutralized with equal volumes of 10% FBS in DMEM. The cells were counted by flow cytometry. 5000 count bright beads were added to each sample as internal control (approximately 200 beads were counted for each sample). All experiments were performed in triplicates.
TeSR medium contains six growth factors, in addition to those present in the basal medium, fibroblast growth factor (FGF), transforming growth factor beta (TGF-β), γ-aminobutyric acid (GABA), pipecolic acid, lithium chloride (LiCl), and insulin (Table 1). A basic nutrient medium (NM) was created containing all TeSR™ components with the exception of these six growth factors. About 2×10^5 H1 ES cells were dissociated and plated on Matrigel. The survival index was determined after 24 h. […] Thus, NM supplemented with FGF and Insulin supports human ES cell culture. Twelve different basal nutrient media supplemented as described above were able to support cell survival and growth (FIG. 1E).
NM contains 11 nutritional components, i.e., DMEM/F12, trace elements B, trace elements C, L-ascorbic acid, thiamine, selenium, L-glutamine, BSA, BME, sodium bicarbonate (NaHCO3), and transferrin (Table 1). […]
H1 cells grew faster in the DF5S medium compared to cells grown in TeSR™ (FIGS. 1C and 2A). […] To increase assay sensitivity only 5,000 cells were seeded in each well and analyzed for survival (24 h) and proliferation (124 h). […]

The subject of assay [6] is foreskin cells. The assay is described as follows: Foreskin cell growth in DF5SFe-based media. On the set-up: species or system human. The method, then: To determine growth factors that can help primary foreskin cell growth, individual growth factors contained in FBS were tested. The FGF family of growth factors has several members, one or more of which is commonly used for fibroblast culture. DF5SFe contains 100 ng/ml zebrafish recombinant FGF2. Each FGF family member was tested for its ability to support foreskin cell growth. Foreskin cells were aliquoted into the well of culture plates and incubated for 24 hours in DF5SFe minus FGF. Individual FGF types were added at 100 ng/ml for 96 h.

The mark [7] stands for this setting: in E8, HA100 10 μM 24 h, blebbistatin 10 μM 4 h, Y27632 10 μM 24 h, versus control.

In the case of IGF1: ligand of the IGF1R receptor, in the assay on H1 ES cells [1], the cell survival result is “rescued cell survival in the absence of insulin” and the “cell survival, dosage response” value is given as “can support hES cell survival in the absence of insulin”. Besides, the cell proliferation entry with H1 ES cells [2] is reported as “able to support cell proliferation”.
In the same order, the values of IGF2: ligand of the IGF1R receptor are “rescued cell survival in the absence of insulin”, “can support hES cell survival in the absence of insulin” and “able to support cell proliferation”.
holo-transferrin: the cloning efficiency result in the assay with H1 cells (H1 cells in DF5S medium, transferrin added) is “noticeable improvement of cloning efficiency”; in the assay on H1 cells (setting [7]), “further increased”; in the assay on iPS cells it was “cloning efficiency comparable to that using TeSR™”.
In the case of `CCCC(=O)[O-].[Na+]` [Butyrate, sodium butyrate], in the assay with foreskin cells [3] (foreskin fibroblasts), the “number of colonies during reprogramming” value is recorded as “did not increase the number of colonies” and the “ratio of true iPS cell to non-iPS cell colonies” value is on record as “improved the ratio of true iPS cell to non-iPS cell colonies significantly”. For the same compound, the reprogramming efficiency entry in the assay with foreskin cells [3] (reagent added to reprogramming media) is “improved reprogramming efficiency”. Further, in the assay on human fibroblasts, the reprogramming efficiency entry is reported as “further enhanced reprogramming efficiency”.
As for insulin, the “cell survival after dissociation (survival index)” value in the assay with H1 ES cells [4] is “cell survival similar to that observed with TeSR™”. Also, the cell growth result in the assay on H1 ES cells [5] (added to NM, insulin 20 ug/ml, FGF2 100 ng/ml, 96 h, compared with TeSR) was “did not support cell growth”.
`O=C(O)[C@@H]1C[C@@H](O)CN1` [Hydroxyproline]: the “cell proliferation after passaging” value in the assay with H1 ES cells [5] is reported as “could partially substitute for L-ascorbic acid”.
On to FGF1: FGF family member growth factor, for which, in the assay on foreskin cells [6] (individual FGF added at 100 ng/ml for 96 h to DF5SFe minus FGF), the foreskin cell growth entry is reported as “supported foreskin cell growth most effectively”.
As to `O=C1O[C@H]([C@@H](O)CO)C(O)=C1O` [L-ascorbic acid], in the assay on H1 ES cells [5], the “cell proliferation after passaging” value is reported as “necessary for cell proliferation after passaging”.
`C[C@@H](N)[C@H]1CC[C@H](C(=O)Nc2ccncc2)CC1` [Y27632]: the cloning efficiency entry in the assay on H1 cells (setting [7]) was “increased cloning efficiency”.
Still for that read-out and setting: under `Cc1ccc2c(c1)C(=O)C1(O)CCN(c3ccccc3)C1=N2` (stereo not drawn) [blebbistatin] stands “increased cloning efficiency”.
Take `O=S(=O)(c1cccc2cnccc12)N1CCNCC1` [HA100]: the cloning efficiency entry with H1 cells (setting [7]) is reported as “increased cloning efficiency”; in the assay on H1 cells (in conditioned medium (CM), at both O5C10 and O15C5, 500 cells per well), “significantly improved cloning efficiency”.
As for `C[C@]12CCC(=O)C=C1CC[C@@H]1[C@@H]2[C@@H](O)C[C@@]2(C)[C@H]1CC[C@]2(O)C(=O)CO` [Hydrocortisone, reference compound], the cloning efficiency entry in the assay with iPS cells is “improved iPS cell cloning efficiency”. Also, the foreskin cell growth result with foreskin cells [6] (added to DF5SFe to replace FBS) is given as “improved cell growth significantly”.

For the origin of these results see patent US9279107B2, “Simplified basic media for human pluripotent cell culture” (WISCONSIN ALUMNI RESEARCH FOUNDATION, priority 2010, dated 2016).
